# Results as given in ChEMBL document CHEMBL3817791, “Discovery of 4-(4-aminopyrazolo[1,5-a][1,3,5]triazin-8-yl)benzamides as novel, highly potent and selective, orally bioavailable inhibitors of Tyrosine Threonine Kinase, TTK” (Bioorg Med Chem Lett, 2016).
# What was measured:
# [1] = Half life in mouse microsomes; format: ADME, Microsome
# [2] = Antiproliferative activity against human OVCAR3 cells; format: functional; conditions: OVCAR-3
# [3] = Cmax in CD-1 nude mouse at 100 mg/ml, po; format: ADME, organism-based; parameters: dose 100 mg/ml, route oral; conditions: in vivo
# [4] = biological target: MAP kinase-activated protein kinase 2 (Homo sapiens) (UniProt P49137); assay: Inhibition of recombinant human N-terminal GST-tagged MAPKAPK2 (46 to 400 residues) expressed in Escherichia coli at 1 uM by radiometric assay relative to control
# Sequence of MAP kinase-activated protein kinase 2 (Homo sapiens) (P49137 whole entry, looked up, the tested form may be a part): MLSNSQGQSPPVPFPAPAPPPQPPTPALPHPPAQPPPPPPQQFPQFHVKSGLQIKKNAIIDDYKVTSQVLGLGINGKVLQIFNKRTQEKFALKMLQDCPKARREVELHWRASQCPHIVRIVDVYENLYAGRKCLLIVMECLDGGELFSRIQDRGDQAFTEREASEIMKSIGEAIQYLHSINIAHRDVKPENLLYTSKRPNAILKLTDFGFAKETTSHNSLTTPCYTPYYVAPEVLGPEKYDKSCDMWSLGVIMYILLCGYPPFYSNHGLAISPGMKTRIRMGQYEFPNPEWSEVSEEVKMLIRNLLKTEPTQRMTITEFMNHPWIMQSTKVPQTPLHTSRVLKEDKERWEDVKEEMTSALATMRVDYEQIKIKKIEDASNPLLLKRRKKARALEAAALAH
# [5] = Half life in human microsomes; format: ADME, Microsome
# [6] = Cmax in CD-1 nude mouse at 10 mg/ml, po; format: ADME, organism-based; parameters: dose 10 mg/ml, route oral; conditions: in vivo
# MDA-MB-231 = assay: Antiproliferative activity against human MDA-MB-231 cells; format: functional
# [7] = Protein binding in mouse plasma; format: ADME, cell-free; conditions: read-out: PPB (converted)
# [8] = biological target: T1, Dual specificity protein kinase TTK (Homo sapiens, UniProt P33981); assay: Competitive inhibition of TTK (unknown origin) by double reciprocal plot analysis in presence of ATP
# T1 sequence (P33981 whole entry): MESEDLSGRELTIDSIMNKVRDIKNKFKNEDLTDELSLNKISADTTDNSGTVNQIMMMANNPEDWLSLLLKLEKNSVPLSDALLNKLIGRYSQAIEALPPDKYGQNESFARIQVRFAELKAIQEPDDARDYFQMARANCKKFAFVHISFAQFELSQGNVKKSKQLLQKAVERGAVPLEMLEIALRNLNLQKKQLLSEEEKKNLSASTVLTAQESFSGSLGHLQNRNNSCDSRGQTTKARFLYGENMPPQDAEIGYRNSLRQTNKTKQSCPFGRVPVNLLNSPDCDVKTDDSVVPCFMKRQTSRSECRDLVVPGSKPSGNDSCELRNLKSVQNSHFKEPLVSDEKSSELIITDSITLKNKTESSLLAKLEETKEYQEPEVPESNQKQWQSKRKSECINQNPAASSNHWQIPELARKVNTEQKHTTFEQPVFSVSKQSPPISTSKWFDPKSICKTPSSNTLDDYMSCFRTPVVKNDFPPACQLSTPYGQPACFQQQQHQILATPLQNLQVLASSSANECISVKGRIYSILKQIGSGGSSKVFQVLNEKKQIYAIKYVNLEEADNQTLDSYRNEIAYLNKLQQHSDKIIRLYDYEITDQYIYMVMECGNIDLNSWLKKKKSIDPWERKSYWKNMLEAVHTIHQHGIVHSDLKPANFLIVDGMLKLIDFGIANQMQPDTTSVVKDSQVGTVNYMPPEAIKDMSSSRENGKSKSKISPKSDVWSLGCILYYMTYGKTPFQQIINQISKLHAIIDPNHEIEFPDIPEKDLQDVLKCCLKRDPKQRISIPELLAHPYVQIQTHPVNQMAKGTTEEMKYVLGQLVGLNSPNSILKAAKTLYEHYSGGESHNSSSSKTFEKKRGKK
# [9] = AUC (0 to last) in CD-1 nude mouse at 55 mg/ml, po; format: ADME, organism-based; parameters: dose 55 mg/ml, route oral, time 0 - last; conditions: in vivo
# HT-29 = assay: Antiproliferative activity against human HT-29 cells; format: functional
# [10] = AUC (0 to last) in CD-1 nude mouse at 70 mg/ml, po; format: ADME, organism-based; parameters: dose 70 mg/ml, time 0 - last, route oral; conditions: in vivo
# [11] = Antiproliferative activity against human PA1 cells; format: functional; conditions: PA-1
# Aurora kinase A = biological target: T2, Aurora kinase A (Homo sapiens, UniProt O14965); assay: Inhibition of full length recombinant human N-terminal His6-tagged Aurora A expressed in Sf21 cells by radiometric assay
# T2 sequence (O14965 whole entry): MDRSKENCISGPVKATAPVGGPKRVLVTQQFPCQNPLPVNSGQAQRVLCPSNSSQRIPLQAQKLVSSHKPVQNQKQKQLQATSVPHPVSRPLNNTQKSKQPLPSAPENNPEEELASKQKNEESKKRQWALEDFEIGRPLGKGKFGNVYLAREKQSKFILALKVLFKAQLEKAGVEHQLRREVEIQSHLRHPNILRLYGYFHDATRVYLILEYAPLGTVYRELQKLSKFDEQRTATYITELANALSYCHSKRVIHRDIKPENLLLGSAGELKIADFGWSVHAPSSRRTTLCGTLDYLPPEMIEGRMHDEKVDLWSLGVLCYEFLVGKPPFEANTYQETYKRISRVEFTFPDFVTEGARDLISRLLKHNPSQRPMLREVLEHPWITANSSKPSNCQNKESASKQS
# [12] = AUC (0 to last) in CD-1 nude mouse at 100 mg/ml, po; format: ADME, organism-based; parameters: dose 100 mg/ml, route oral, time 0 - last; conditions: in vivo
# [13] = Clearance in Sprague-Dawley rat at 1 mg/ml, iv; format: ADME, organism-based; conditions: in vivo
# [14] = Cmax in Sprague-Dawley rat at 5 mg/ml, iv; format: ADME, organism-based; parameters: dose 5 mg/ml, route intravenous; conditions: in vivo
# [15] = Protein binding in human plasma; format: ADME, cell-free; conditions: read-out: PPB (converted)
# [16] = AUC (0 to last) in CD-1 nude mouse at 10 mg/ml, po; format: ADME, organism-based; parameters: dose 10 mg/ml, route oral, time 0 - last; conditions: in vivo
# [17] = Antiproliferative activity against human HCT116 cells; format: functional; conditions: HCT-116
# [18] = Half life in rat microsomes; format: ADME, Microsome
# [19] = Half life in Sprague-Dawley rat at 5 mg/ml, iv; format: ADME, organism-based; conditions: in vivo
# [20] = Volume of distribution at steady state in Sprague-Dawley rat at 1 mg/ml, iv; format: ADME, organism-based; conditions: in vivo, read-out: Vdss
# [21] = AUC (0 to infinity) in Sprague-Dawley rat at 1 mg/ml, iv; format: ADME, organism-based; parameters: dose 1 mg/ml, time infinity, route intravenous; conditions: in vivo
# [22] = biological target: Rho-associated protein kinase 2 (Homo sapiens) (UniProt O75116); assay: Inhibition of recombinant human N-terminal His6-tagged ROCK2 (11 to 552 residues) expressed in baculovirus infected Sf21 cells at 1 uM by radiometric assay relative to control
# Sequence of Rho-associated protein kinase 2 (Homo sapiens) (O75116 whole entry, looked up, the tested form may be a part): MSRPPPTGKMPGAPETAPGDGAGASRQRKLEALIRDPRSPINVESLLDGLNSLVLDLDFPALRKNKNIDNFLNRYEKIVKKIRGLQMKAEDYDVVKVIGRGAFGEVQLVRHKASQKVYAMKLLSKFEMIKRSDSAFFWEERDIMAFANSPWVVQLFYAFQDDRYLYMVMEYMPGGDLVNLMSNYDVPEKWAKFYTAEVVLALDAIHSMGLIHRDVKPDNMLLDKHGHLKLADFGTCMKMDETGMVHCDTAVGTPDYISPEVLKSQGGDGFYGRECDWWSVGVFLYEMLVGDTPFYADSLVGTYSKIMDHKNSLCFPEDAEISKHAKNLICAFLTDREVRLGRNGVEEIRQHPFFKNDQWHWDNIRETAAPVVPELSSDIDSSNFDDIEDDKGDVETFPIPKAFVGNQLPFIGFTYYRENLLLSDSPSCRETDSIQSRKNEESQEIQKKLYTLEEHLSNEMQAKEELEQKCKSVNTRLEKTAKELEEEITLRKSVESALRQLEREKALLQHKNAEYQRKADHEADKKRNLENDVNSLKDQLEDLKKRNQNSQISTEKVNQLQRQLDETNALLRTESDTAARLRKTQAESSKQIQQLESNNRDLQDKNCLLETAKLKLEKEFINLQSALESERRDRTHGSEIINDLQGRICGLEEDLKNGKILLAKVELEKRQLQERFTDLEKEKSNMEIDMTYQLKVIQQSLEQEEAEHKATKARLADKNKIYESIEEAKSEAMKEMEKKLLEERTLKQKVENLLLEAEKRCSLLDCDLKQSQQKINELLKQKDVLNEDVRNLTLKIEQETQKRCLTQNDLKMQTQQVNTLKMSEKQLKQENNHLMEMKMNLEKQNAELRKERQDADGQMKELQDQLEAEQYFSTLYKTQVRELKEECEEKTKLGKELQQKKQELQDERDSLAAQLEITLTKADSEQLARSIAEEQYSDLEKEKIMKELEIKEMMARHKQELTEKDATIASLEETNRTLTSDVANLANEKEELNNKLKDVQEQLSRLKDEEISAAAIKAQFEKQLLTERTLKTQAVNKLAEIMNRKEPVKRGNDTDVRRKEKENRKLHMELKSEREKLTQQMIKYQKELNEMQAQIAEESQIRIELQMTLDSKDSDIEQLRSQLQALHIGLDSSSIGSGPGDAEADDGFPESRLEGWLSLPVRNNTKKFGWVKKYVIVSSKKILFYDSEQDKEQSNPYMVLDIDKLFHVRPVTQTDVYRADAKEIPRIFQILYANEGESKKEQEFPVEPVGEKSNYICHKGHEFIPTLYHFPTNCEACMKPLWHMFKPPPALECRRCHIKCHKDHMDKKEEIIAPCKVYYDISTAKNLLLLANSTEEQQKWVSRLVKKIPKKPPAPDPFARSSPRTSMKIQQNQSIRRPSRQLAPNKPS
# [23] = AUC (0 to infinity) in Sprague-Dawley rat at 5 mg/ml, iv; format: ADME, organism-based; parameters: dose 5 mg/ml, route intravenous, time infinity; conditions: in vivo
# MDA-MB-468 = assay: Antiproliferative activity against human MDA-MB-468 cells; format: functional
# Cytochrome P450 3A4 = Cytochrome P450 3A4 (Homo sapiens, UniProt P08684); assay: Inhibition of CYP3A4 (unknown origin); format: ADME
# Sequence of Cytochrome P450 3A4 (P08684 whole entry): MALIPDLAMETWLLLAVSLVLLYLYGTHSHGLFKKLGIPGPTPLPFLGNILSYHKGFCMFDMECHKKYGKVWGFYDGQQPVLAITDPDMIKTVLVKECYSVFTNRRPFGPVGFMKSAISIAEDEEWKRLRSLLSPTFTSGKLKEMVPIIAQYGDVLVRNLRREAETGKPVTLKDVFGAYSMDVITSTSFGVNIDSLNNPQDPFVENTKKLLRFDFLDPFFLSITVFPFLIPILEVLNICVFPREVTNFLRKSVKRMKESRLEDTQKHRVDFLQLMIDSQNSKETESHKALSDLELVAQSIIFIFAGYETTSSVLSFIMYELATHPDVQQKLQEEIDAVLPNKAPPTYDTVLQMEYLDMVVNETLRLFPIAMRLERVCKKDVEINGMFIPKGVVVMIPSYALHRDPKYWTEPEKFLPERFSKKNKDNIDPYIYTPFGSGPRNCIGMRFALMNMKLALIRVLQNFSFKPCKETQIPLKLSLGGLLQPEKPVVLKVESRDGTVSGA
# [24] = Cmax in CD-1 nude mouse at 55 mg/ml, po; format: ADME, organism-based; parameters: dose 55 mg/ml, route oral; conditions: in vivo
smiles,measurement,setting,value
Cc1cc(-c2cnn3c(NCC4CCOCC4)nc(Oc4ccccc4)nc23)ccc1C(=O)NC1CC1,half-life,[1],0.767 h
same,GI50,[2],190 nM
same,Cmax,[3],2900 ng/mL
same,inhibition,[4],-8%
same,half-life,[5],> 1 h
same,Cmax,[6],890 ng/mL
same,GI50,MDA-MB-231,32 nM
same,fraction unbound,[7],0.016
same,Ki,[8],0.77 nM
same,AUC(0-t),[9],38100 ng·h/mL
same,GI50,HT-29,15 nM
same,AUC(0-t),[10],53000 ng·h/mL
same,GI50,[11],30 nM
same,IC50,Aurora kinase A,> 50000 nM
same,AUC(0-t),[12],25000 ng·h/mL
same,clearance,[13],19 mL/min/kg
same,Cmax,[14],841 ng/mL
same,fraction unbound,[15],0.028
same,AUC(0-t),[16],1530 ng·h/mL
same,GI50,[17],13 nM
same,half-life,[18],> 1 h
same,half-life,[19],1.7 h
same,Vd,[20],2.8 L
same,AUC(0-inf),[21],871 ng·h/mL
same,inhibition,[22],0%
same,AUC(0-inf),[23],4230 ng·h/mL
same,GI50,MDA-MB-468,160 nM
same,IC50,Cytochrome P450 3A4,800 nM
same,Cmax,[24],7600 ng/mL
